Experimental data: US4769321A, “Assay method and reagent therefor” (priority 1979, dated 1988)

Experiments:
creatine kinase = assay: Creatine phosphate detection with creatine kinase as reagent (Example B7); assay type: biochemical, bovine; conditions: for O.D. Units (340 nm) change/minute at 1.5 minutes: CK 0.05 U, 30° C., nil CP gave 0.0011
Protocol: Mixtures were made up in 10 mM dimethyl-glutamate buffer at pH 6.8 and containing 5 mM MgCl2 and 0.1% in bovine serum albumin as follows:
In each case the components were combined from stock solutions in a quartz cuvette of 1 ml capacity, mixed and immediately monitored for NADH oxidation by following their optical density at 340 nm and 30° C.

[1] = test system: E. coli Type I pyruvate kinase (PK); conditions: in the presence of certain amounts of phosphoenolpyruvate; cited from earlier work
PK(I) = assay: Detection of ATP by activation of the PFK/PK(I) feedback system (Example B2); assay type: biochemical, E. coli; conditions: 0.0001 to 0.5 mM ATP; 340 nm, 30° C.
Protocol: Cultures of E. coli strain K1-1 were grown on a synthetic medium containing essential nutrients and glycerol as carbon source, until well into their logarithmic phase of growth. The cells were harvested, washed by centrifugation and resuspended in a sonication buffer of 5 mM phosphate, 1 mM EDTA, 2 mM mercaptoethanol pH 7.5 in an amount of approximately 20 mg dry weight per ml. They were then disrupted with an MSE ultrasonic disintegrator for 4 minutes (in 30 seconds bursts while cooled). The resulting crude extract was separated from cell debris by centrifugation. As well as containing pyruvate kinase (I) this extract also contained an interfering isoenzyme with different properties, and also a number of other interfering enzyme activities. It was found, however, that it was possible to remove these contaminants by heating the extract to 55° C. for 20-60, for example 45, minutes. This is the source of pyruvate kinase (I) referred to in the following examples.
In this example the same basic system described in Example 1 was again used, but instead of the system being used to detect an enzyme capable of giving rise to ATP, the pre-existing ATP in a solution was assayed, using a PK(I) extract which had been prepared by heating at 55° C. for 60 minutes.
As in the previous example, the assays were carried out in quartz spectrophotometer cuvettes for use with 1.0 ml assay mixtures. […]

alkaline phosphatase = assay: Detection of alkaline phosphatase by antibody-coated wells and NAD cycle (Example A1); assay type: biochemical, bovine (calf); conditions: ten-fold dilutions 1:1000 to 1:10^7; pH 9.3; room temperature
Protocol: The alkaline phosphatase used in this example is as obtainable from the Sigma Chemical Co (London) Ltd Type VII from bovine (calf) intestine catalogue number P4502 (1981). Antibody is raised against this material by any of the standard procedures. For example 0.5 mg of the alkaline phosphatase suspension is taken and made to 1.0 ml with distilled water and shaken gently. One ml of Freund's complete adjuvant is then added and the mixture homogenised through a connector between two hypodermic syringes back and forth until a stable water-in-oil emulsion is produced. Approximately 1 ml of the emulsion is then injected intramuscularly into each hindquarter of a rabbit. The injections are repeated two and four weeks later with the same amount of alkaline phosphatase but without the added Freund's adjuvant. Blood is then taken from the immunised animal two weeks after the last injection and the immune-serum taken off after clotting has taken place. An IgG fraction of the serum is then obtained by the standard procedure of DEAE Cellulose Chromatography set out in Methods in Immunology by D. H. Cambell, J. S. Garvey, N. E. Cremer and D. H. Sussdorf, 2nd Edition (1970) pages 193-197, published by W. A. Benjamin, Reading Mass. […] The plates are now ready for use. […]

CN(CC(=O)O)C(=N)NP(=O)(O)O [CP, creatine phosphate]
dependence of the system on creatine phosphate (creatine kinase): dependent on the presence of creatine phosphate and the concentration thereof | O.D. Units (340 nm) change/minute at 1.5 minutes (creatine kinase; CP concentration 0.4 mM): 0.0070 O.D. Units (340 nm) change/min | O.D. Units (340 nm) change/minute at 1.5 minutes (creatine kinase; CP concentration 4.0 mM): 0.0118 O.D. Units (340 nm) change/min

O=C(COP(=O)(O)O)[C@@H](O)[C@H](O)[C@H](O)COP(=O)(O)O [fructose-1,6-diphosphate]
activation of E. coli Type I pyruvate kinase [1]: very potent activator

Nc1ncnc2c1ncn2[C@@H]1O[C@H](COP(=O)(O)OP(=O)(O)OP(=O)(O)O)[C@@H](O)[C@H]1O [ATP, adenosine 5'-triphosphate]
initiation and rate of NADH oxidation vs ATP concentration (PK(I)): The higher concentrations of ATP gave rise to an earlier initiation of observable NADH oxidation and subsequently increased in their rate faster than the lower concentrations

B1: alkaline phosphatase: Sigma Type VII from bovine (calf) intestine catalogue number P4502 (protein, UniProt P19111 20-506, looked up)
Intestinal-type alkaline …: LVPVEEEDPAFWNRQAAQALDVAKKLQPIQTAAKNVILFLGDGMGVPTVTATRILKGQMNGKLGPETPLAMDQFPYVALSKTYNVDRQVPDSAGTATAYLCGVKGNYRTIGVSAAARYNQCKTTRGNEVTSVMNRAKKAGKSVGVVTTTRVQHASPAGAYAHTVNRNWYSDADLPADAQMNGCQDIAAQLVNNMDIDVILGGGRKYMFPVGTPDPEYPDDASVNGVRKRKQNLVQAWQAKHQGAQYVWNRTALLQAADDSSVTHLMGLFEPADMKYNVQQDHTKDPTLQEMTEVALRVVSRNPRGFYLFVEGGRIDHGHHDDKAYMALTEAGMFDNAIAKANELTSELDTLILVTADHSHVFSFGGYTLRGTSIFGLAPSKALDSKSYTSILYGNGPGYALGGGSRPDVNDSTSEDPSYQQQAAVPQASETHGGEDVAVFARGPQAHLVHGVEEETFVAHIMAFAGCVEPYTDCNLPAPTTATSIPD
colour change in wells vs alkaline phosphatase concentration (alkaline phosphatase): change of colour from pale yellow to black much faster than did those which had been exposed to a lower concentration
